Measured values: US20260092061A1, “COMPOUNDS FOR TARGETED PROTEIN DEGRADATION” (Amphista Therapeutics Limited, priority 2022, published 2026)
Like-named read-outs stand apart in the source and are kept apart here.

Molecular target: T1, BRD9 (Homo sapiens, UniProt Q9H8M2)
T1 sequence (Q9H8M2 1-597): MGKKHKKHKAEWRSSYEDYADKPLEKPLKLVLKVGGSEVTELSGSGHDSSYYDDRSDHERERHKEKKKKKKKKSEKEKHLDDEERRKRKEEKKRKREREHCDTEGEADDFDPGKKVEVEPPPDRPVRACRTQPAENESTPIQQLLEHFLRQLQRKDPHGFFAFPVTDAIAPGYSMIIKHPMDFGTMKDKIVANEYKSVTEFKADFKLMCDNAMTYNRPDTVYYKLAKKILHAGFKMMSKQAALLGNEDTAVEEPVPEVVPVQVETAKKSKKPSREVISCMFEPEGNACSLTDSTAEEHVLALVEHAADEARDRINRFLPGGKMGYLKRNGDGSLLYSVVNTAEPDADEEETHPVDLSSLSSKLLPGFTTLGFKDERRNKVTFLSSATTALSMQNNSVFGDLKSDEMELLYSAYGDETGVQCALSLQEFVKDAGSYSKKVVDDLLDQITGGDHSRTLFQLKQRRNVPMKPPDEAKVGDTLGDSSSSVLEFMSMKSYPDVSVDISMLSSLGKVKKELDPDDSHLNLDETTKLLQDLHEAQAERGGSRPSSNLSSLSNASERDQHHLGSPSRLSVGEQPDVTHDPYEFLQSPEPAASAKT
Assay: Degradation of BRD9 (IF), immunofluorescence in MV4-11 cells, 24 hours (Assay Protocol 2)
Assay type: cell-based
Set-up: A suspension of MV4-11 cells (ATCC CRL-9591) was prepared; host or cells: MV4-11
Conditions: BRD9 degradation
In short: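 % BRD9 remaining, scaled between DMSO (high) and 100 nM CFT-8634 (low) control wells, derives from mean Alexa 647 contrast in central nuclei by high-content imaging. MV4-11 cells had 24 h compound exposure at 37° C. before PFA fixation, Triton permeabilisation and anti-BRD9 E4Q3F immunostaining.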

[1] = Assay protocol 2, read-out: DC50
[2] = MV4-11, Assay protocol 2, read-out: Dmax
[3] = MV4-11, Table 4, determined according to Assay Protocol 2, read-out: Dmax^2
[4] = Table 4, determined according to Assay Protocol 2, read-out: DC50^2

| DC50 [1] [nM] | Dmax [2] [%] | Dmax [3] [%] | DC50 [4] [nM] | Compound |
| --- | --- | --- | --- | --- |
| 1.25 to 10 | 70 to 75 |  |  | CC[C@@H]1CN(Cc2cccc3c2CCN(C(=O)/C(C#N)=C/C(C)(C)C)C3C)CCN1Cc1c(OC)cc(-c2cn(C)c(=O)c(C)c2C)cc1OC (mixture of isomers) [Compound B120, (E/Z)-2-(5-(((R)-4-(2,6-dimethoxy-4-(1,4,5-trimethyl-6-oxo-1,6-dihydropyridin-3-yl)benzyl)-3-ethylpiperazin-1-yl)methyl)-1-methyl-1,2,3,4-tetrahydroisoquinoline-2-carbonyl)-4,4-dimethylpent-2-enenitrile] |
| < 1.25 | > 75 |  |  | COc1cc(-c2cn(C)c(=O)c(C)c2C)cc(OC)c1CN1CCN(Cc2cccc3c2CCN(C(=O)/C(C#N)=C/C2(C)CCOCC2)C3C(C)C)C2(CC2)C1 (mixture of isomers) [Compound C23, (E/Z)-2-(5-((7-(2,6-dimethoxy-4-(1,4,5-trimethyl-6-oxo-1,6-dihydropyridin-3-yl)benzyl)-4,7-diazaspiro[2.5]octan-4-yl)methyl)-1-isopropyl-1,2,3,4-tetrahydroisoquinoline-2-carbonyl)-3-(4-methyltetrahydro-2H-pyran-4-yl)acrylonitrile] |
| 1.25 to 10 | > 75 |  |  | COc1cc(-c2cn(C)c(=O)c(C)c2C)cc(OC)c1CN1CCC(Oc2ccc3c(c2)[C@H](C)N(C(=O)/C(C#N)=C/C(C)(C)C)CC3)CC1 (single isomer, unassigned) [Compound C73, (E/Z)-2-(7-((1-(2,6-dimethoxy-4-(1,4,5-trimethyl-6-oxo-1,6-dihydropyridin-3-yl)benzyl)piperidin-4-yl)oxy)-1-methyl-1,2,3,4-tetrahydroisoquinoline-2-carbonyl)-4,4-dimethylpent-2-enenitrile] |
| < 1.25 | > 75 |  |  | COc1cc(-c2cn(C)c(=O)c(C)c2C)cc(OC)c1CN1CCN(Cc2cccc3c2CCN(C(=O)/C(C#N)=C/C2(C)CCOC2)C3C)C2(CC2)C1 (mixture of isomers) [Compound B174, (E/Z)-2-(5-((7-(2,6-dimethoxy-4-(1,4,5-trimethyl-6-oxo-1,6-dihydropyridin-3-yl)benzyl)-4,7-diazaspiro[2.5]octan-4-yl)methyl)-1-methyl-1,2,3,4-tetrahydroisoquinoline-2-carbonyl)-3-(3-methyltetrahydrofuran-3-yl)acrylonitrile] |
| 1.25 to 10 | > 75 |  |  | COc1cc(-c2cn(C)c(=O)c(C)c2C)cc(OC)c1CN1CCN(Cc2ccc3c(c2)[C@H](C)N(C(=O)/C(C#N)=C/C(C)(C)CF)CC3)CC12CC2 (single isomer, unassigned) [Compound C33] |
| 10 to 25 | 40 to 70 |  |  | COc1cc(-c2cn(C)c(=O)c(C)c2C)cc(OC)c1CN1CCCN(Cc2ccc3c(c2)[C@@H](C)N(C(=O)/C(C#N)=C/C(C)(C)C)CC3)CC1 (single isomer, unassigned) [Compound C107] |
| 1.25 to 10 | > 75 |  |  | COc1cc(-c2cn(C)c(=O)c(C)c2C)ccc1OC1CCN(Cc2cccc3c2CCN(C(=O)/C(C#N)=C/C(C)(C)C)[C@H]3C)CC1 (single isomer, unassigned) [Compound C31, (E/Z)-2-(5-((4-(2-methoxy-4-(1,4,5-trimethyl-6-oxo-1,6-dihydropyridin-3-yl)phenoxy)piperidin-1-yl)methyl)-1-methyl-1,2,3,4-tetrahydroisoquinoline-2-carbonyl)-4,4-dimethylpent-2-enenitrile] |
| 10 to 25 | 40 to 70 |  |  | COc1cc(-c2cn(C)c(=O)c(C)c2C)cc(OC)c1CN1CCCN(c2ccc3c(c2)[C@@H](C)N(C(=O)/C(C#N)=C/C(C)(C)CF)CC3)CC1 (mixture of isomers) [Compound C69, (E/Z)-2-(7-(4-(2,6-dimethoxy-4-(1,4,5-trimethyl-6-oxo-1,6-dihydropyridin-3-yl)benzyl)-1,4-diazepan-1-yl)-1-methyl-1,2,3,4-tetrahydroisoquinoline-2-carbonyl)-5-fluoro-4,4-dimethylpent-2-enenitrile] |
| < 1.25 | > 75 |  |  | COc1cc(-c2cn(C)c(=O)c(C)c2C)cc(OC)c1CN1CCC(Oc2cccc3c2CCN(C(=O)/C(C#N)=C/c2ccc(C(F)(F)F)cn2)C3C)CC1 (mixture of isomers) [Compound B64, (E/Z)-2-(5-((1-(2,6-dimethoxy-4-(1,4,5-trimethyl-6-oxo-1,6-dihydropyridin-3-yl)benzyl)piperidin-4-yl)oxy)-1-methyl-1,2,3,4-tetrahydroisoquinoline-2-carbonyl)-3-(5-(trifluoromethyl)pyridin-2-yl)acrylonitrile] |
| 25 to 1000 | > 75 |  |  | COc1cc(-c2cn(C)c(=O)c(C)c2C)ccc1O[C@H]1CC[C@@H](Nc2cccc3c2CCN(C(=O)/C(C#N)=C/C(C)(C)C)C3C)CC1 (stereo partly drawn) [Compound C56] |
| < 1.25 | > 75 |  |  | COc1cc(-c2cn(C)c(=O)c(C)c2C)cc(OC)c1CN1CCN(Cc2cccc3c2CCN(C(=O)/C(C#N)=C\C24CC(OC)(C2)C4)C3C)C2(CC2)C1 (mixture of isomers) [Compound B141, (E/Z)-2-(5-((7-(2,6-dimethoxy-4-(1,4,5-trimethyl-6-oxo-1,6-dihydropyridin-3-yl)benzyl)-4,7-diazaspiro[2.5]octan-4-yl)methyl)-1-methyl-1,2,3,4-tetrahydroisoquinoline-2-carbonyl)-3-(3-methoxybicyclo[1.1.1]pentan-1-yl)acrylonitrile] |
| < 1.25 | > 75 |  |  | COc1cc(-c2cn(C)c(=O)c(C)c2C)cc(OC)c1CN1CCN(Cc2cccc3c2CCN(C(=O)C(C#N)=CC24CC(OC)(C2)C4)C3C)C2(CC2)C1 (mixture of isomers) [Compound B191, (E/Z)-2-(5-((7-(2,6-dimethoxy-4-(1,4,5-trimethyl-6-oxo-1,6-dihydropyridin-3-yl)benzyl)-4,7-diazaspiro[2.5]octan-4-yl)methyl)-1-methyl-1,2,3,4-tetrahydroisoquinoline-2-carbonyl)-3-(3-methoxybicyclo[1.1.1]pentan-1-yl)acrylonitrile] |
|  |  | > 70 | > 200 | COc1cc(-c2cn(C)c(=O)c(C)c2C)cc(OC)c1CN1CCC2(CC1)CCN(C(=O)/C(C#N)=C/c1cccc(Br)n1)CC2 [BRD9r, (E/Z)-3-(6-bromopyridin-2-yl)-2-(9-(2,6-dimethoxy-4-(1,4,5-trimethyl-6-oxo-1,6-dihydropyridin-3-yl)benzyl)-3,9-diazaspiro[5.5]undecane-3-carbonyl)acrylonitrile] |
| < 1.25 | > 75 |  |  | COc1cc(-c2cn(C)c(=O)c3ccsc23)cc(OC)c1CN1CCN(Cc2cccc3c2CCN(C(=O)/C(C#N)=C/c2cccc(Br)n2)C3C)C2(CC2)C1 (mixture of isomers) [Compound B108, (E/Z)-3-(6-bromopyridin-2-yl)-2-(5-((7-(2,6-dimethoxy-4-(5-methyl-4-oxo-4,5-dihydrothieno[3,2-c]pyridin-7-yl)benzyl)-4,7-diazaspiro[2.5]octan-4-yl)methyl)-1-methyl-1,2,3,4-tetrahydroisoquinoline-2-carbonyl)acrylonitrile] |
|  |  | 50 to 70 | < 25 | COc1cc(-c2cn(C)c(=O)c(C)c2C)cc(OC)c1C(=O)N1CCN(C(=O)/C(C#N)=C/C(C)(C)C)CC1 [BRD9s, (E/Z)-2-(4-(2,6-dimethoxy-4-(1,4,5-trimethyl-6-oxo-1,6-dihydropyridin-3-yl)benzoyl)piperazine-1-carbonyl)-4,4-dimethylpent-2-enenitrile] |
